“And” between values parts separate entries of the source, which are not always exact repeats. Equal entries are not always repeated. Toxic doses and inconclusive results are not listed.

The subject of the assay is P388 leukemia ip, CD2F1 mice, survival T/C. Nature of the assay: NCI In Vivo Anticancer Drug Screen. Data for tumor model P388 Leukemia (intraperitoneal) in CD2F1 (CDF1) mice. Conditions: endpoint: median survival time, higher = longer survival. Put shortly:
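Mice carrying the transplanted tumor received test compound or vehicle. Survival was recorded in each group, and the value is the treated-group measurement divided by that of the vehicle-treated control group.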

Where [1] appears, read: dose: 50.0 mg/kg/injection, schedule: Q01DX009 (ip), vehicle: saline with Tween-80.
Where [2] appears, read: dose: 100.0 mg/kg/injection, schedule: Q01DX009 (ip), vehicle: saline with Tween-80.
The mark [3] stands for this setting: dose: 200.0 mg/kg/injection, schedule: Q01DX009 (ip), vehicle: saline with Tween-80.
[4] abbreviates: dose: 50.0 mg/kg/injection, schedule: Q01DX005 (ip), vehicle: saline with Tween-80.
The mark [5] stands for this setting: dose: 100.0 mg/kg/injection, schedule: Q01DX005 (ip), vehicle: saline with Tween-80.
[6] abbreviates: dose: 200.0 mg/kg/injection, schedule: Q01DX005 (ip), vehicle: saline with Tween-80.
The mark [7] stands for this setting: dose: 50.0 mg/kg/injection, schedule: Q01DX005 (ip), vehicle: Klucel (hydroxypropylcellulose) (HPC).
The mark [8] stands for this setting: dose: 100.0 mg/kg/injection, schedule: Q01DX005 (ip), vehicle: Klucel (hydroxypropylcellulose) (HPC).
Where [9] appears, read: dose: 200.0 mg/kg/injection, schedule: Q01DX005 (ip), vehicle: Klucel (hydroxypropylcellulose) (HPC).
[10] abbreviates: dose: 25.0 mg/kg/injection, schedule: Q01DX009 (ip), vehicle: Klucel (hydroxypropylcellulose) (HPC).
[11] abbreviates: dose: 50.0 mg/kg/injection, schedule: Q01DX009 (ip), vehicle: Klucel (hydroxypropylcellulose) (HPC).
The mark [12] stands for this setting: dose: 100.0 mg/kg/injection, schedule: Q01DX009 (ip), vehicle: Klucel (hydroxypropylcellulose) (HPC).
Setting [13] is: dose: 200.0 mg/kg/injection, schedule: Q01DX009 (ip), vehicle: Klucel (hydroxypropylcellulose) (HPC).

On to `CCN(CC)CCN1C(=O)CN=C(c2ccccn2)c2cc(Cl)ccc21`, for which the T/C reads like this: under setting [1], 100 % of control; under setting [2], 95 % of control; under setting [3], 100 % of control.

For `COc1cc([C@H]2c3cc(O)c(OC)cc3C[C@]3(O)[C@@H]2CO[C@@H]3O)ccc1O`, the T/C (dose: 4.75 mg/kg/injection, schedule: Q01DX005 (ip), vehicle: saline with Tween-80) is 104 % of control; the T/C (dose: 9.5 mg/kg/injection, schedule: Q01DX005 (ip), vehicle: saline with Tween-80) is 95 % of control; the T/C (dose: 19.0 mg/kg/injection, schedule: Q01DX005 (ip), vehicle: saline with Tween-80) is 96 % of control; the T/C (dose: 38.0 mg/kg/injection, schedule: Q01DX005 (ip), vehicle: saline with Tween-80) is 99 % of control.

Consider `C=Cc1nc(=O)[nH]c(=O)[nH]1`, for which the T/C is 97 % of control (dose: 100.0 mg/kg/injection, schedule: Q04DX002 (ip), vehicle: Klucel (hydroxypropylcellulose) (HPC)); 101 % of control (dose: 100.0 mg/kg/injection, schedule: Q04DX002 (ip), vehicle: saline); 91 % of control (dose: 200.0 mg/kg/injection, schedule: Q04DX002 (ip), vehicle: Klucel (hydroxypropylcellulose) (HPC)); 108 % of control (dose: 200.0 mg/kg/injection, schedule: Q04DX002 (ip), vehicle: saline); 97 % of control (dose: 400.0 mg/kg/injection, schedule: Q04DX002 (ip), vehicle: Klucel (hydroxypropylcellulose) (HPC)); 98 % of control (dose: 400.0 mg/kg/injection, schedule: Q04DX002 (ip), vehicle: saline).

Regarding `N#CC(C(=O)C(=O)Nc1cccc(Cl)c1)c1ccccc1` (configuration not stated), the T/C reads like this: under setting [4], 109 % of control; under setting [5], 104 % of control; under setting [6], 99 % of control.

Take `O=C(O)C1CCCN1C(=O)c1cccc(Cl)c1` (configuration not stated): the T/C under setting [4] was 94 % of control, the T/C under setting [5] is 96 % of control and the T/C under setting [6] was 87 % of control.

Turning to `O=C(NO)c1ccccc1O`, the T/C is, setting by setting: under setting [2], 110 % of control; (dose: 100.0 mg/kg/injection, schedule: Q04DX003 (ip), vehicle: saline with Tween-80) 86 % of control; under setting [3], 100 % of control; (dose: 200.0 mg/kg/injection, schedule: Q04DX003 (ip), vehicle: saline with Tween-80) 90 % of control; (dose: 400.0 mg/kg/injection, schedule: Q01DX009 (ip), vehicle: saline with Tween-80) 110 % of control; (dose: 400.0 mg/kg/injection, schedule: Q04DX003 (ip), vehicle: saline with Tween-80) 100 % of control.

`O=c1c2ccccc2sc2c([N+](=O)[O-])ccc(NCC3CCCN4CCCCC34)c12` (configuration not stated): the T/C was 96 % of control (dose: 38.5 mg/kg/injection, schedule: Q01DX005 (ip), vehicle: saline with Tween-80); 96 % of control (dose: 77.0 mg/kg/injection, schedule: Q01DX005 (ip), vehicle: saline with Tween-80); 118 % of control (dose: 154.0 mg/kg/injection, schedule: Q01DX005 (ip), vehicle: saline with Tween-80).

Regarding `COc1ccc(/C=C/c2ccc3ccccc3[n+]2C)cc1`, the T/C reads like this: (dose: 11.0 mg/kg/injection, schedule: Q01DX009 (ip), vehicle: saline with Tween-80) 122 % of control; (dose: 12.5 mg/kg/injection, schedule: Q01DX009 (ip), vehicle: saline with Tween-80) 124 % of control; (dose: 25.0 mg/kg/injection, schedule: Q01DX009 (ip), vehicle: saline with Tween-80) 122 % of control.

For `Cc1cc(Nc2ccc3c(c2)OCO3)c2cc3c(cc2n1)OCO3`, the T/C is, setting by setting: under setting [7], 105 % of control and 107 % of control; under setting [8], 116 % of control; under setting [9], 165 % of control and 178 % of control.

Turning to `C/C(=C\[P+](c1ccccc1)(c1ccccc1)c1ccccc1)N1CC1`, the T/C by setting is: (dose: 6.0 mg/kg/injection, schedule: Q01DX001 (ip), vehicle: saline with Tween-80) 107 % of control and 115 % of control; (dose: 9.0 mg/kg/injection, schedule: Q01DX001 (ip), vehicle: saline with Tween-80) 101 % of control and 113 % of control; (dose: 12.0 mg/kg/injection, schedule: Q01DX001 (ip), vehicle: saline with Tween-80) 105 % of control and 108 % of control; (dose: 12.5 mg/kg/injection, schedule: Q01DX001 (ip), vehicle: saline with Tween-80) 123 % of control; (dose: 18.0 mg/kg/injection, schedule: Q01DX001 (ip), vehicle: saline with Tween-80) 105 % of control and 113 % of control.

For `O=C(O)CN(CCN(CC(=O)O)CC(=O)O)CC(=O)O.[O]=[Mo]1[O][Mo](=[O])[O]1`, the T/C (dose: 50.0 mg/kg/injection, schedule: Q01DX009 (ip), vehicle: saline) was 89 % of control and the T/C (dose: 100.0 mg/kg/injection, schedule: Q01DX009 (ip), vehicle: saline) is 90 % of control.

With `O=C(O)c1cn2c3c(cc(N4CCN(CCO)CC4)cc3c1=O)SCC2`, the T/C reads like this: (dose: 60.0 mg/kg/injection, schedule: Q01DX005 (ip), vehicle: saline with Tween-80) 104 % of control; (dose: 120.0 mg/kg/injection, schedule: Q01DX005 (ip), vehicle: saline with Tween-80) 113 % of control; (dose: 240.0 mg/kg/injection, schedule: Q01DX005 (ip), vehicle: saline with Tween-80) 105 % of control.

For `O=C(N/N=C/c1cc(Cl)cc(Cl)c1O)c1ccccc1`, the T/C is 96 % of control (dose: 100.0 mg/kg/injection, schedule: Q01DX001 (ip), vehicle: saline with Tween-80); 98 % of control (dose: 200.0 mg/kg/injection, schedule: Q01DX001 (ip), vehicle: saline with Tween-80); 103 % of control (dose: 400.0 mg/kg/injection, schedule: Q01DX001 (ip), vehicle: saline with Tween-80).

Regarding `COc1ccc2c(C)cc(N/N=C(\C)c3ccccn3)nc2c1`, the T/C by setting is: (dose: 3.12 mg/kg/injection, schedule: Q01DX005 (ip), vehicle: Klucel (hydroxypropylcellulose) (HPC)) 100 % of control; (dose: 6.25 mg/kg/injection, schedule: Q01DX005 (ip), vehicle: Klucel (hydroxypropylcellulose) (HPC)) 98 % of control; (dose: 12.5 mg/kg/injection, schedule: Q01DX005 (ip), vehicle: Klucel (hydroxypropylcellulose) (HPC)) 90 % of control and 97 % of control; (dose: 25.0 mg/kg/injection, schedule: Q01DX005 (ip), vehicle: Klucel (hydroxypropylcellulose) (HPC)) 95 % of control; under setting [7], 98 % of control and 97 % of control.

Consider `CC(=O)Nc1ccc2c(c1)/C(=C/c1ccc(N(C)C)cc1)c1ccccc1-2`, for which the T/C reads like this: under setting [10], 91 % of control; under setting [11], 96 % of control; under setting [12], 96 % of control; under setting [13], 100 % of control.

On to `COc1cc2nc3cc([N+](=O)[O-])ccc3c(Cl)c2cc1OC`, for which the T/C by setting is: under setting [4], 99 % of control; under setting [5], 101 % of control; under setting [6], 89 % of control.

With `CCOP(=S)(N/N=C(\C)c1ccncc1)OCC`, the T/C under setting [7] is 112 % of control, the T/C under setting [8] was 107 % of control and the T/C under setting [9] is 115 % of control.

`CC(=O)OCC12CCC(C)=CC1OC1C(OS(C)(=O)=O)C(=O)C2(C)C12CO2` (configuration not stated): the T/C was 100 % of control (dose: 0.5 mg/kg/injection, schedule: Q01DX009 (ip), vehicle: saline); 103 % of control (dose: 1.0 mg/kg/injection, schedule: Q01DX009 (ip), vehicle: saline); 109 % of control (dose: 2.0 mg/kg/injection, schedule: Q01DX009 (ip), vehicle: saline); 110 % of control (dose: 4.0 mg/kg/injection, schedule: Q01DX009 (ip), vehicle: saline).

With `O=C(O)c1ccc2c3c(ncnc13)-c1ccccc1C2=O`, the T/C reads like this: (dose: 6.25 mg/kg/injection, schedule: Q01DX009 (ip), vehicle: Klucel (hydroxypropylcellulose) (HPC)) 103 % of control; (dose: 12.5 mg/kg/injection, schedule: Q01DX009 (ip), vehicle: Klucel (hydroxypropylcellulose) (HPC)) 111 % of control and 96 % of control; under setting [10], 112 % of control and 96 % of control; under setting [11], 105 % of control and 109 % of control and 111 % of control; under setting [12], 100 % of control; under setting [13], 109 % of control.

Take `COC(=O)C(C#N)c1ccccn1` (configuration not stated): the T/C was 96 % of control under setting [1] and 100 % of control under setting [2].

As for `NC(Cc1c(Br)[nH]c2ccccc12)C(=O)O` (configuration not stated), the T/C is, setting by setting: under setting [4], 98 % of control; under setting [5], 103 % of control; under setting [6], 104 % of control.
